Our source for the IC50 and Activity values is ChEMBL document CHEMBL1155015, “Synthesis and cytotoxic activities of usnic acid derivatives” (Bioorg Med Chem, 2008).

pIC50: −log10 of the molar value. Bounds are passed on as bounds.

The subject of experiment [1] is L1210. The experiment can be described thus: Cytotoxicity against mouse L1210 ATCC CCL 219 cells after 48 hrs by MTT assay. The format is functional, cell-based. Conditions: L1210, 48 h. In general terms: Formazan colour is commonly taken as a measure of viable cells.
Experiment [2] has as its system CHO. The experiment can be described thus: Cytotoxicity against CHO cells after 48 hrs by MTT assay. The format is cell-based. Particulars: Cricetulus griseus.
Another experiment has as its system MCF7. The experiment can be described thus: Cytotoxicity against human MCF7 ATCC HTB 22 cells after 72 hrs by MTT assay. The format is functional, cell-based. Conditions: MCF7, 72 h.
A further experiment deals with K562. The experiment can be described thus: Cytotoxicity against human K562 ATCC CCL 243 cells after 72 hrs by MTT assay. The format is functional, cell-based. Particulars: K562, 72 h.
The next experiment concerns U-251. The experiment is described as follows: Cytotoxicity against human U251 RCB 0641 cells after 72 hrs by MTT assay. The format is functional, cell-based. Conditions: U-251, 72 h.
The subject of experiment [3] is CHO. The experiment can be described thus: Cytotoxicity against polyamine transport-deficient mutant CHO cells after 48 hrs by MTT assay. Conditions: Cricetulus griseus. The format is ADME, cell-based.
The nature of experiment [4]: Cytotoxicity against mouse 3LL CRL 1642 cells after 48 hrs by MTT assay. The format is functional, cell-based.
A further experiment deals with DU-145. The experiment can be described thus: Cytotoxicity against human DU145 ATCC HTB 81 cells after 72 hrs by MTT assay. The format is functional, cell-based. Particulars: DU-145, 72 h.
Experiment [5] concerns L1210. The experiment is described as follows: Induction of apoptosis in mouse L1210 ATCC CCL 219 cells assessed as fragmented cell nuclei at 3 uM after 24 hrs by Hoechst 33342 staining. The format is functional.
The subject of experiment [6] is L1210. The experiment can be described thus: Induction of apoptosis in mouse L1210 ATCC CCL 219 cells assessed as fragmented cell nuclei at 3 uM after 48 hrs by Hoechst 33342 staining. The format is functional.
Experiment [7] deals with L1210. The experiment is described as follows: Induction of apoptosis in mouse L1210 ATCC CCL 219 cells assessed as fragmented cell nuclei at 4.5 uM after 24 hrs by Hoechst 33342 staining. The format is functional.
Experiment [8] has as its system L1210. The experiment can be described thus: Induction of apoptosis in mouse L1210 ATCC CCL 219 cells assessed as fragmented cell nuclei at 4.5 uM after 48 hrs by Hoechst 33342 staining. The format is functional.
In experiment [9] the test system is L1210. The experiment is described as follows: Induction of apoptosis in mouse L1210 ATCC CCL 219 cells assessed as fragmented cell nuclei at 6 uM after 24 hrs by Hoechst 33342 staining. The format is functional.
Experiment [10] has as its system L1210. The experiment can be described thus: Induction of apoptosis in mouse L1210 ATCC CCL 219 cells assessed as fragmented cell nuclei at 6 uM after 48 hrs by Hoechst 33342 staining. The format is functional.
The subject of experiment [11] is L1210. The experiment can be described thus: Induction of apoptosis in mouse L1210 ATCC CCL 219 cells assessed as increase in caspase 3 activity at 3 uM after 48 hrs relative to control. The format is functional.
Experiment [12] deals with L1210. The experiment can be described thus: Induction of apoptosis in mouse L1210 ATCC CCL 219 cells assessed as increase in caspase 3 activity at 4.5 uM after 48 hrs relative to control. The format is functional.
Experiment [13] relates to L1210. The experiment is described as follows: Induction of apoptosis in mouse L1210 ATCC CCL 219 cells assessed as increase in caspase 3 activity at 6 uM after 48 hrs relative to control. The format is functional.
For experiment [14], the system named is L1210. The experiment can be described thus: Induction of apoptosis in mouse L1210 ATCC CCL 219 cells assessed as fragmented cell nuclei at 17 uM after 24 hrs by Hoechst 33342 staining. The format is functional.
Experiment [15] relates to L1210. The experiment is described as follows: Induction of apoptosis in mouse L1210 ATCC CCL 219 cells assessed as fragmented cell nuclei at 17 uM after 48 hrs by Hoechst 33342 staining. The format is functional.
Experiment [16] has as its system L1210. The experiment can be described thus: Induction of apoptosis in mouse L1210 ATCC CCL 219 cells assessed as fragmented cell nuclei at 26 uM after 24 hrs by Hoechst 33342 staining. The format is functional.
Experiment [17] has as its system L1210. The experiment can be described thus: Induction of apoptosis in mouse L1210 ATCC CCL 219 cells assessed as fragmented cell nuclei at 26 uM after 48 hrs by Hoechst 33342 staining. The format is functional.
Experiment [18] concerns L1210. The experiment can be described thus: Induction of apoptosis in mouse L1210 ATCC CCL 219 cells assessed as fragmented cell nuclei at 35 uM after 24 hrs by Hoechst 33342 staining. The format is functional.
Experiment [19] concerns L1210. The experiment can be described thus: Induction of apoptosis in mouse L1210 ATCC CCL 219 cells assessed as fragmented cell nuclei at 35 uM after 48 hrs by Hoechst 33342 staining. The format is functional.
Experiment [20] concerns L1210. The experiment can be described thus: Induction of apoptosis in mouse L1210 ATCC CCL 219 cells assessed as increase in caspase 3 activity at 17 uM after 48 hrs relative to control. The format is functional.
Experiment [21] deals with L1210. The experiment can be described thus: Induction of apoptosis in mouse L1210 ATCC CCL 219 cells assessed as increase in caspase 3 activity at 26 uM after 48 hrs relative to control. The format is functional.
Experiment [22] concerns L1210. The experiment can be described thus: Induction of apoptosis in mouse L1210 ATCC CCL 219 cells assessed as increase in caspase 3 activity at 35 uM after 48 hrs relative to control. The format is functional.
Experiment [23] deals with L1210. The experiment is described as follows: Induction of apoptosis in mouse L1210 ATCC CCL 219 cells assessed as fragmented cell nuclei at 1.7 uM after 24 hrs by Hoechst 33342 staining. The format is functional.
In experiment [24] the test system is L1210. The experiment can be described thus: Induction of apoptosis in mouse L1210 ATCC CCL 219 cells assessed as fragmented cell nuclei at 1.7 uM after 48 hrs by Hoechst 33342 staining. The format is functional.
Experiment [25] deals with L1210. The experiment can be described thus: Induction of apoptosis in mouse L1210 ATCC CCL 219 cells assessed as increase in caspase 3 activity at 1.7 uM after 48 hrs relative to control. The format is functional.

On to `NCCCCCCCCN`, for which the negative-log IC50 (pIC50) in the experiment with L1210 [1] and in the experiment on CHO [2] was < 4.00 each time.

Consider `CCOC(=O)[C@H](CC(C)C)N/C(C)=C1\C(=O)C=C2Oc3c(C(C)=O)c(O)c(C)c(O)c3[C@@]2(C)C1=O`, for which the pIC50 was 4.31 in the experiment on L1210 [1], < 4.00 in the experiment on MCF7, 4.22 with K562 and < 4.00 in the experiment on U-251.

Consider `CCOC(=O)[C@H](Cc1ccccc1)N/C(C)=C1\C(=O)C=C2Oc3c(C(C)=O)c(O)c(C)c(O)c3[C@@]2(C)C1=O`, for which the pIC50 was 4.13 in the experiment with L1210 [1], < 4.00 with MCF7, < 4.00 in the experiment on K562 and < 4.00 with U-251.

Turning to `CC(=O)c1c(O)c(C)c(O)c2c1OC1=CC(=O)/C(=C(/C)NCCCCN)C(=O)[C@@]12C`, the negative-log IC50 (pIC50) in the experiment with L1210 [1] is 4.92; in the experiment on CHO [2] it was 4.97; in the experiment on CHO [3], 4.92.

Regarding `CC(=O)c1c(O)c(C)c(O)c2c1OC1=CC(=O)/C(=C(/C)NCCCNCCCCNCCCN)C(=O)[C@@]12C`, the negative-log IC50 (pIC50) is 4.82 with L1210 [1]; 4.32 in the experiment on CHO [2]; 4.23 with CHO [3]; 4.95 with MCF7; 5.36 in the experiment with U-251.

Consider `CC(=O)c1c(O)c(C)c(O)c2c1OC1=CC(=O)/C(=C(/C)NCCCCO)C(=O)[C@@]12C`, for which the negative logarithm of the IC50 (pIC50) with L1210 [1] is 4.70; in the experiment on CHO [2], 4.71.

In the case of `CC(=O)c1c(O)c(C)c(O)c2c1OC1=CC(=O)/C(=C(/C)NCCCNCCCCN)C(=O)[C@@]12C`, the pIC50 in the experiment on L1210 [1] was 5.08; in the experiment with CHO [2], 4.53; in the experiment on CHO [3], 4.55; in the experiment on MCF7, 5.00; with U-251, 4.90.

Consider `CC[C@H](C)[C@H](N/C(C)=C1\C(=O)C=C2Oc3c(C(C)=O)c(O)c(C)c(O)c3[C@@]2(C)C1=O)C(=O)O`, for which the values for the negative logarithm of the IC50 (pIC50) with L1210 [1], in the experiment with MCF7 and in the experiment with K562 were 4.76, < 4.00 and 4.25, respectively.

For `CCCCCCCCCN/C(C)=C1\C(=O)C=C2Oc3c(C(C)=O)c(O)c(C)c(O)c3[C@@]2(C)C1=O`, the pIC50 with L1210 [1] was < 3.30.

`CC(=O)c1c(O)c(C)c(O)c2c1OC1=CC(=O)/C(=C(/C)NCCCCCCCCN)C(=O)[C@@]12C`: the negative-log IC50 (pIC50) was 5.57 in the experiment on L1210 [1]; 5.46 with CHO [2]; 5.30 with CHO [3]; 5.09 in [4]; 4.85 with DU-145; 5.24 with MCF7. For the same compound, the negative logarithm of the IC50 (pIC50) was 5.14 in the experiment on K562 and 5.09 in the experiment on U-251. Also, the Activity with L1210 [5] came to 37%; in the experiment with L1210 [6], 37%; in the experiment with L1210 [7], 38%; in the experiment with L1210 [8] it was 42%; in the experiment with L1210 [9] it was 35%; with L1210 [10], 48%. The Activity in the experiment on L1210 [11] is listed as 1.4; with L1210 [12], 1.7; in the experiment on L1210 [13], 1.7.

On to `CC(=O)C1=C(O)C=C2Oc3c(C(C)=O)c(O)c(C)c(O)c3C2(C)C1=O` (single isomer, unassigned) [(-)-USNIC ACID], for which the pIC50 is 4.76 in the experiment on L1210 [1]; 4.45 in [4]; 4.34 in the experiment on DU-145; 4.29 with MCF7; 4.66 in the experiment with K562; 4.71 with U-251.

As for `CC(=O)C1=C(O)C=C2Oc3c(C(C)=O)c(O)c(C)c(O)c3[C@@]2(C)C1=O` [(+)-USNIC ACID], the pIC50 with L1210 [1] is 4.58; in the experiment on CHO [2], 4.50; with CHO [3] it was 4.52; in experiment [4], 4.64; in the experiment with DU-145, 4.24; in the experiment with MCF7 it was 3.98. In addition, the pIC50 with K562 was 4.28; in the experiment with U-251 it was 4.71. The Activity was 30% with L1210 [14]; 33% in the experiment with L1210 [15]; 32% with L1210 [16]; 38% in the experiment with L1210 [17]; 35% with L1210 [18]; 42% with L1210 [19]. Moreover, the Activity in the experiment on L1210 [20] is 3.4; in the experiment with L1210 [21] it was 7.4; with L1210 [22], 21.9.

On to `COc1cc([C@@H]2c3cc4c(cc3[C@@H](O[C@@H]3O[C@@H]5CO[C@@H](C)O[C@H]5[C@H](O)[C@H]3O)[C@H]3COC(=O)[C@H]23)OCO4)cc(OC)c1O` [ETOPOSIDE], for which the pIC50 in the experiment with L1210 [1] is 6.30; in [4] it was 5.40; in the experiment with DU-145, 5.82; in the experiment on K562, 5.31; with U-251, 6.30. Further, the Activity in the experiment on L1210 [23] was determined as 47%; in the experiment with L1210 [24], 53%; in the experiment on L1210 [25], 19.5.

With `NCCCCN` [PUTRESCINE], the negative-log IC50 (pIC50) in the experiment on L1210 [1], with CHO [2] and in the experiment with CHO [3] was < 4.00 throughout.

Take `NCCCCNCCCN` [SPERMIDINE]: the negative logarithm of the IC50 (pIC50) in the experiment with L1210 [1], in the experiment with CHO [2] and with CHO [3] was < 4.00 throughout.

Take `NCCCNCCCCNCCCN` [SPERMINE]: the values for the pIC50 with L1210 [1], in the experiment with CHO [2] and with CHO [3] were 4.26, < 4.00 and < 4.00, respectively.

A word on the pIC50: it is −log10 of the IC50, conventionally taken in molar units. High values mean a low IC50, low ones a high IC50.
